EP0487930B1, “Benzo[C]phenanthridinium derivatives” (NIPPON KAYAKU KABUSHIKI KAISHA, priority 1990, dated 1992)
Structures can show the parent of a compound that is named as a salt. Where two headings read alike, the source gives them in different places.

Assays:
[1] = Storage stability of the powder at room temperature; assay type: physicochemical; settings: stored at room temperature for a long period of time
From the text: This compound is a powdery material having a yellowish color immediately after the production thereof. It gradually changes its color into brown. […] This is because a decomposition product, which is difficultly soluble in water, has been formed during the storage of the compound. So, it is not considered that the compound has properties suitable for formulating into a phamaceutical preparation.
2,3-(methylenedioxy)-5-methyl-7-hydroxy-8-ethoxy-benzo[c]phenanthridinium hydrogen sulfate (compound A-0), wherein the acid residue X^- is a hydrogen sulfate ion HSO4^-, is a compound according to the invention, and can be obtained as yellow powder. […] A 0.5 µM aqueous solution of 2,3-(methylenedioxy)-5-ethyl-7-hydroxy-8-methoxy-benzo[c]phenanthridinium chloride, wherein the acid residue X^- is a chloride ion Cl^-, has a pH of 4.3. On the other hand, a 0.5 µM aqueous solution of 2,3-(methylenedioxy)-5-methyl-7-hydroxy-8-methoxy-benzo[c]phenanthridinium hydrogen sulfate according to the invention, wherein the acid residue X^- is a hydrogen sulfate ion HSO4^-, has a pH of 3.9. […] There are no disadvantages in the pharmaceutical activities of such compounds when they have the form of hydrogen salts such as hydrogen sulfate salts. Therefore, the hydrogen salt compounds are practically useful as medicines in view of the enhanced stability thereof.

MMI = test: Growth inhibition activity against tumor cells (Methylene Blue staining); assay type: cell-based
Experimental: (§1) Various tumor cells were cultured at 37°C for 24 hours in 5% gaseous carbon dioxide, and then subjected to an action of a test drug for 2-4 days. After that, the cells were stained with 0.05% Methylene Blue. The pigment were extracted from the stained cells. The growth inhibition rate of the cells was determined based on absorbance of the extracted pigment at 660 nm, and the 50% growth inhibitory concentration (IC50) was calculated.
(§2) In this table, the abbreviated expressions have the following tumor cells: HeLa S3 = carcinoma colli; MMI = ovarian cancer; SHIN-3 = ovarian cancer; N-231 = small cell lung cancer; Lu-130 = small cell lung cancer; Nakajima = gastric cancer; and the expression "n.t." represents "not tested". These tests were conducted according to a simultaneous comparison test method, except the case of HeLa S3.

Lu-130 = test: as above; assay type: cell-based
Experimental: as §1, §2

HeLa S3 = test: as above; assay type: cell-based; settings: Homo sapiens
Experimental: as §1, §2

N-231 = test: as above; assay type: cell-based
Experimental: as §1, §2

SHIN-3 = test: as above; assay type: cell-based
Experimental: as §1, §2

Nakajima = test: as above; assay type: cell-based; settings: Nakajima = gastric cancer; test drug for 2-4 days
Experimental: as §1, §2

[2] = system: platelet aggregation caused by platelet activation factor (PAF) in platelet-rich plasma (PRP); test: Inhibition activity on platelet aggregation (serotonin release, anti-PAF activity); assay type: cell-based, Japanese albino rabbits; settings: Oryctolagus cuniculus, PAF 10^-7 M, serotonin release inhibition rate; for inhibition at 25 µg/mL: Concentration 25 µg/ml; for inhibition at 50 µg/mL: Concentration 50 µg/ml; for inhibition at 100 µg/mL: Concentration 100 µg/ml
Experimental: Platelet-rich plasma (PRP) was collected from Japanese albino rabbits (weighing 3-4 kg). As a platelet aggregation inducer, platelet activation factor (PAF) was used in a final concentration of 10^-7 M. A test drug was added to PRP. After incubation for a definite period of time, PAF was added to cause a platelet aggregation reaction. The reaction was terminated with EDTA. After a centrifugation, the supernatant was removed to obtain platelet precipitates. Distilled water was added to the platelet precipitates, whereby the serotonin remained in the platelet was reacted with an orthophthalaldehyde reagent to form a serotonin-orthophthaladehyde condensate. The condensate was measured at an excited wavelength of 360 nm and at a measurement wavelength of 475 nm. Anti-PAF activity of the test drug was determined by the following equation. Serotonin release inhibition rate (%) =((Test drug + PAF) value - PAF value)/(Blank value - PAF value)x 100 [formula] In the equation, the expression "value" stands for "serotonin value".

[3] = MMI = ovarian cancer, test drug for 2-4 days, read-out: IC50
[4] = Lu-130 = small cell lung cancer, test drug for 2-4 days, read-out: IC50
[5] = N-231 = small cell lung cancer, test drug for 2-4 days, read-out: IC50
[6] = SHIN-3 = ovarian cancer, test drug for 2-4 days, read-out: IC50

| Structure (SMILES) | IC50 (MMI) | IC50 (Lu-130) | IC50 (HeLa S3; HeLa S3) | IC50 (N-231) | IC50 (SHIN-3) | IC50 (MMI; [3]) | IC50 (Lu-130; [4]) | IC50 (N-231; [5]) | IC50 (Nakajima) | IC50 (SHIN-3; [6]) | inhibition at 25 µg/mL [2] | inhibition at 50 µg/mL [2] | inhibition at 100 µg/mL [2] | also measured |
| --- | --- | --- | --- | --- | --- | --- | --- | --- | --- | --- | --- | --- | --- | --- |
| COc1ccc2c(c[n+](C)c3c4cc5c(cc4ccc23)OCO5)c1O [2,3-(methylenedioxy)-5-methyl-7-hydroxy-8-methoxy-benzo[c]phenanthridinium chloride] | – | – | – | – | – | – | – | – | – | – | – | – | – | stability on storage [1]: gradually decomposed |
| COc1ccc2c(c[n+](C)c3c4cc5c(cc4ccc23)OCO5)c1O [Compound A-0, 2,3-(methylenedioxy)-5-methyl-7-hydroxy-8-methoxy-benzo[c]phenanthridinium hydrogen sulfate salt] | 0.12 µg/mL | 0.055 µg/mL | 0.15 µg/mL | 0.036 µg/mL | 0.192 µg/mL | – | – | – | – | – | – | – | – | – |
| CC[n+]1cc2c(O)c(OC)ccc2c2ccc3cc4c(cc3c21)OCO4 [Compound A-1, 2,3-(methylenedioxy)-5-ethyl-7-hydroxy-8-methoxy-benzo[c]phenanthridinium hydrogen sulfate salt] | – | – | – | – | – | 0.165 µg/mL | 0.25 µg/mL | 0.04 µg/mL | 0.426 µg/mL | 0.17 µg/mL | 49.6% | 74.1% | 96.5% | IC50 (HeLa S3; HeLa S3 = carcinoma colli, test drug for 2-4 days, not part of the simultaneous comparison test, read-out: IC50): 0.177 µg/mL; inhibition at 12.5 µg/mL ([2]; Concentration 12.5 µg/ml): 25.2% |
| CCC[n+]1cc2c(O)c(OC)ccc2c2ccc3cc4c(cc3c21)OCO4 [Compound A-2, 2,3-(methylenedioxy)-5-(n-propyl)-7-hydroxy-8-methoxy-benzo[c]phenanthridinium hydrogen sulfate salt] | – | – | – | – | – | 0.273 µg/mL | 0.108 µg/mL | 0.085 µg/mL | 0.777 µg/mL | 0.414 µg/mL | – | – | – | – |
| CC[n+]1cc2c(O)c(OC)ccc2c2ccc3ccccc3c21.O=S(=O)([O-])O [Compound A-3, 5-ethyl-7-hydroxy-8-methoxy-benzo[c]phenanthridinium hydrogen sulfate salt] | – | – | 0.69 µg/mL | – | – | – | – | – | – | – | – | – | – | – |
| COc1ccc2c(c[n+](C)c3c4ccccc4ccc23)c1O.O=S(=O)([O-])O [Compound A-4, 5-methyl-7-hydroxy-8-methoxy-benzo[c]phenanthridinium hydrogen sulfate salt] | 0.262 µg/mL | 0.051 µg/mL | 0.26 µg/mL | 0.062 µg/mL | 0.155 µg/mL | – | – | – | – | – | 10.9% | 26.5% | 46.4% | – |
